Biological target: Melanin-concentrating hormone receptor 1 (Homo sapiens, UniProt Q99705)
Test: biochemical
Type: cell-based, HEK293
Description: Binding affinity towards the human MCH-R1 receptor by displacing [125I]Tyr13]-MCH radioligand in HEK293 cells, Data is average of 3 or more independent measurements

Sequence of Melanin-concentrating hormone receptor 1 (Q99705 whole entry): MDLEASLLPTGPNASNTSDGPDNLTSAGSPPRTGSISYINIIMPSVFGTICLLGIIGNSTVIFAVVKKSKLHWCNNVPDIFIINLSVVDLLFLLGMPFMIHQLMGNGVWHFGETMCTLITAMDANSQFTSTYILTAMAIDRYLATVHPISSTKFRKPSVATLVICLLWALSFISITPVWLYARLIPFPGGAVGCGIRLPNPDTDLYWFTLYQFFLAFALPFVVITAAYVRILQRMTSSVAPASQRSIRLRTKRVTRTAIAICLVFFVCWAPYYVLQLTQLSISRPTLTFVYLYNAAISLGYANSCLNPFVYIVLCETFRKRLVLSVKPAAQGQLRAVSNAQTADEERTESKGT

Cc1cccc(C)c1-c1ccc(C(=O)N(C)[C@H]2CCN(C(=O)N(C)[C@@H]3CCN(C)C3)C2)s1
Ki: 310 nM

CN1CC[C@H](N(C)C(=O)N2CC[C@H](N(C)C(=O)c3ccc(-c4ccc(C(F)(F)F)cc4)s3)C2)C1
Ki: 14 nM

CCc1ccc(-c2ccc(C(=O)N(C)[C@H]3CCN(C(=O)N(C)[C@@H]4CCN(C)C4)C3)s2)cc1
Ki: 1 nM

CCOc1ccc(-c2ccc(C(=O)N(C)[C@H]3CCN(C(=O)N(C)[C@@H]4CCN(C)C4)C3)s2)c(Cl)c1
Ki: 2 nM

CN1CC[C@@H](N(C)C(=O)N2CC[C@H](N(C)C(=O)c3ccc(-c4ccc(N(C)C)cc4)s3)C2)C1
Ki: 7 nM

CN1CC[C@@H](N(C)C(=O)N2CC[C@@H](N(C)C(=O)c3ccc(-c4ccc(C(F)(F)F)cc4)s3)C2)C1
Ki: 150 nM

COc1cccc(-c2ccc(C(=O)N(C)[C@H]3CCN(C(=O)N(C)[C@@H]4CCN(C)C4)C3)s2)c1
Ki: 900 nM

Cc1ccccc1-c1ccc(C(=O)N(C)[C@H]2CCN(C(=O)N(C)[C@@H]3CCN(C)C3)C2)s1
Ki: 19 nM

COc1ccc(-c2ccc(C(=O)N(C)[C@H]3CCN(C(=O)N(C)[C@@H]4CCN(C)C4)C3)cc2)cc1
Ki: 5 nM

Cc1cc(Cl)ccc1-c1ccc(C(=O)N(C)[C@H]2CCN(C(=O)N(C)[C@@H]3CCN(C)C3)C2)s1
Ki: 3 nM

CN1CC[C@@H](N(C)C(=O)N2CC[C@H](N(C)C(=O)c3ccc(-c4ccc(C(F)(F)F)cc4)s3)C2)C1
Ki: 2 nM

CN1CC[C@@H](N(C)C(=O)N2CC[C@H](N(C)C(=O)c3ccc(-c4cccc(Cl)c4)s3)C2)C1
Ki: 320 nM

CN1CC[C@@H](N(C)C(=O)N2CC[C@H](N(C)C(=O)c3ccc(-c4cccc(C(F)(F)F)c4)s3)C2)C1
Ki: 1800 nM

CN1CC[C@@H](N(C)C(=O)N2CC[C@H](N(C)C(=O)c3ccc(-c4ccc(Cl)cc4)cc3)C2)C1
Ki: 2 nM

CC(C)c1ccc(-c2ccc(C(=O)N(C)[C@H]3CCN(C(=O)N(C)[C@@H]4CCN(C)C4)C3)s2)cc1
Ki: 5 nM

CN1CC[C@@H](N(C)C(=O)N2CC[C@H](N(C)C(=O)c3ccc(-c4ccc(C#N)cc4)s3)C2)C1
Ki: 2400 nM

COc1ccc(-c2ccc(C(=O)N(C)[C@H]3CCN(C(=O)N(C)[C@@H]4CCN(C)C4)C3)s2)cc1
Ki: 4 nM

COc1ccc(-c2ccc(C(=O)N(C)[C@H]3CCN(C(=O)N(C)[C@@H]4CCN(C)C4)C3)s2)c(C)c1
Ki: 3 nM

CN1CC[C@@H](N(C)C(=O)N2CC[C@H](N(C)C(=O)c3ccc(-c4ccc(Cl)cc4)s3)C2)C1
Ki: 2 nM

CCOc1ccc(-c2ccc(C(=O)N(C)[C@H]3CCN(C(=O)N(C)[C@@H]4CCN(C)C4)C3)s2)cc1
Ki: 63 nM

CN1CC[C@@H](N(C)C(=O)N2CC[C@H](N(C)C(=O)c3ccc(-c4ccc(Cl)cc4Cl)s3)C2)C1
Ki: 3 nM

CN1CC[C@@H](N(C)C(=O)N2CC[C@H](N(C)C(=O)c3ccc(-c4ccc(OC(F)(F)F)cc4)s3)C2)C1
Ki: 4 nM

Cc1ccc(-c2ccc(C(=O)N(C)[C@H]3CCN(C(=O)N(C)[C@@H]4CCN(C)C4)C3)s2)cc1
Ki: 3 nM

CN1CC[C@H](N(C)C(=O)N2CC[C@@H](N(C)C(=O)c3ccc(-c4ccc(C(F)(F)F)cc4)s3)C2)C1
Ki: 190 nM

COc1ccccc1-c1ccc(C(=O)N(C)[C@H]2CCN(C(=O)N(C)[C@@H]3CCN(C)C3)C2)s1
Ki: 3400 nM

CN1CC[C@@H](N(C)C(=O)N2CC[C@H](N(C)C(=O)c3ccc(-c4ccc(S(C)(=O)=O)cc4)s3)C2)C1
Ki: 6000 nM

CN1CC[C@@H](N(C)C(=O)N2CC[C@H](N(C)C(=O)c3ccc(-c4ccccc4C(F)(F)F)s3)C2)C1
Ki: 61 nM

CN1CC[C@@H](N(C)C(=O)N2CC[C@H](N(C)C(=O)c3ccc(-c4ccc(F)cc4)s3)C2)C1
Ki: 37 nM

COc1ccc(-c2ccc(C(=O)N(C)[C@H]3CCN(C(=O)N(C)[C@@H]4CCN(C)C4)C3)cc2)c(C)c1
Ki: 16 nM

CN1CC[C@@H](N(C)C(=O)N2CC[C@H](N(C)C(=O)c3ccc(-c4ccccc4Cl)s3)C2)C1
Ki: 10 nM

Cc1ccc(-c2ccc(C(=O)N(C)[C@H]3CCN(C(=O)N(C)[C@@H]4CCN(C)C4)C3)s2)c(C)c1
Ki: 3 nM

CN1CC[C@@H](N(C)C(=O)N2CC[C@H](N(C)C(=O)c3ccc(-c4ccc(O)cc4)s3)C2)C1
Ki: > 10000 nM

Cc1ccc(-c2ccc(C(=O)N(C)[C@H]3CCN(C(=O)N(C)[C@@H]4CCN(C)C4)C3)s2)c(Cl)c1
Ki: 1 nM

CC(C)Oc1ccc(-c2ccc(C(=O)N(C)[C@H]3CCN(C(=O)N(C)[C@@H]4CCN(C)C4)C3)s2)cc1
Ki: 3300 nM

Source: ChEMBL document CHEMBL1140258, “Synthesis and structure-activity relationships of biarylcarboxamide bis-aminopyrrolidine urea derived small-molecule antagonists of the melanin-concentrating hormone receptor-1 (MCH-R1)” (Bioorg Med Chem Lett, 2005)
